Source: the NIST ThermoML archive (doi:10.1016/j.jct.2007.06.014)

Assay: xn = mol fraction of the nth substance listed
Details: Liquid, Bellows volumetry

CCCC [butane] + CCC
mass density [kg/m3]
Details | x2 = 0.2729 | x2 = 0.5021 | x2 = 0.7308
400 K, 80000 kPa | – | 558.01 | 543.56
400 K, 90000 kPa | 579.66 | 567.04 | 552.92
400 K, 100000 kPa | 587.69 | 575.06 | 561.28
400 K, 120000 kPa | 601.92 | 589.51 | 576.29
400 K, 140000 kPa | 614.15 | 602.26 | 589.3
400 K, 160000 kPa | 625.33 | 613.48 | 600.76
400 K, 180000 kPa | 635.3 | 623.72 | 611.22
400 K, 200000 kPa | 644.44 | 632.92 | 620.55
420 K, 10000 kPa | – | 374.84 | –
420 K, 20000 kPa | – | 438.42 | –
420 K, 30000 kPa | – | 469.92 | –
420 K, 40000 kPa | – | 491.93 | –
420 K, 50000 kPa | – | 509 | –
420 K, 60000 kPa | – | 523.17 | –
420 K, 70000 kPa | – | 535.32 | –
420 K, 80000 kPa | – | 546.03 | –
420 K, 90000 kPa | – | 555.52 | –
420 K, 100000 kPa | – | 564.2 | –
420 K, 120000 kPa | – | 579.48 | –
420 K, 140000 kPa | – | 592.86 | –
420 K, 160000 kPa | – | 604.42 | –
420 K, 180000 kPa | – | 615.03 | –
420 K, 200000 kPa | – | 624.5 | –
440 K, 10000 kPa | 365.44 | – | –
440 K, 20000 kPa | 435.74 | 414.16 | 389.82
440 K, 30000 kPa | 469.11 | 451.25 | 431.31
440 K, 40000 kPa | 492.08 | 475.9 | 458.02
440 K, 50000 kPa | 509.82 | 494.74 | 478.11
440 K, 60000 kPa | 524.44 | 510.12 | 494.23
440 K, 70000 kPa | 537.02 | 523.11 | 507.76
440 K, 80000 kPa | 547.99 | 534.41 | 519.7
440 K, 90000 kPa | 557.71 | 544.56 | 530.16
440 K, 100000 kPa | 566.67 | 553.96 | 539.53
440 K, 120000 kPa | 582.31 | 569.97 | 556.04
440 K, 140000 kPa | 595.88 | 583.79 | 570.27
440 K, 160000 kPa | 607.79 | 596.12 | 582.77
440 K, 180000 kPa | 618.69 | 606.9 | 593.99
440 K, 200000 kPa | 628.49 | 616.83 | 604.14
